Target: human GPR17 short isoform (Homo sapiens, UniProt Q13304)
Assay: GPR17 cAMP assay (hGPR17 cAMP, TR-FRET, antagonist mode)
Format: cell-based
Conditions: CHO-K1 cells stably expressing human GPR17 short isoform; EC80 of agonist MDL29,951; forskolin 15 μM; 30 min at room temperature
Method: CHO-K1 cells stably expressing vector containing untagged human GPR17 short isoform (Roche) were cultured at 37° C./5% CO2 in DMEM (Dulbecco's Modified Eagle Medium): F-12 (1:1) supplemented with 10% foetal bovine serum and 400 μg/ml Geneticin.
Changes in intracellular cyclic adenosine monophosphate (cAMP) levels were quantified using the Nano-TRF Detection Assay kit (Roche Diagnostics, Cat. No. 05214386001). This assay allows for direct cAMP quantification in a homogeneous solution. CAMP is detected based on time-resolved fluorescence energy transfer (TR-FRET) and competitive binding of ruthenylated cAMP and endogenous cAMP to an anti-cAMP monoclonal antibody labeled with AlexaFluor-700. The Ruthenium complex serves as the FRET donor and transfers energy to AlexaFluor-700. The FRET signal is inversely proportional to the CAMP concentration.
CHO-GPR17S cells were detached with Accutase and resuspended in assay buffer consisting of Hank's Balanced Salt Solution (HBSS), 10 mM HEPES (4-(2-hydroxyethyl) piperazine-1-ethanesulfonic acid solution) and 0.1% bovine serum albumin (pH 7.4). The cells were seeded in black 384-well plates (Corning) at a density of 10′000 cells/20 μl assay buffer until the addition of compounds.
Test antagonist compounds were serially diluted in dimethyl sulfoxide (DMSO) and spotted in 384-well plates. The compounds were then diluted in HBSS buffer supplemented with an EC80 concentration of MDL29,951 (3-(2-Carboxy-4,6-dichloroindol-3-yl) propionic acid) (GPR17 agonist) plus 3-Isobutyl-1-methylxanthine (IBMX) (0.5 mM final concentration) and added to the cells at room temperature. Forskolin (15 μM final concentration) was added 5 minutes after the test compounds and the cells were incubated at room temperature for 30 minutes. The assay was stopped by adding cAMP detection mix (containing detergents for cell lysis) for 90 minutes at room temperature.
Cellular cAMP was measured using a Paradigm reader (Molecular Devices). The raw data was used to calculate the FRET signal based on the assay's P-factor as per cAMP kit instructions. The data was normalized to the maximal activity of a reference antagonist and dose response curves were fitted to the percent activity of the test compounds using a sigmoidal dose response model (Genedata Screener).

Chain of human GPR17 short isoform (Q13304 29-367): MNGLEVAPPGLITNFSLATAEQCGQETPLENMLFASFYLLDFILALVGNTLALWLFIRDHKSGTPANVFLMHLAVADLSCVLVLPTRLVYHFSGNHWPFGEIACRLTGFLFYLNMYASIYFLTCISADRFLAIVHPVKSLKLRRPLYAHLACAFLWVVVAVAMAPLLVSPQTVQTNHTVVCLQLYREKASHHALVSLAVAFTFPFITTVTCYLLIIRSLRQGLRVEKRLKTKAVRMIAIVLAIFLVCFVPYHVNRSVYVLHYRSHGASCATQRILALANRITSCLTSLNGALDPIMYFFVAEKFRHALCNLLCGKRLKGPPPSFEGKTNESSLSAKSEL

Compound | IC50
COc1nc(NS(=O)(=O)c2cnc3cc(Br)ccn23)ncc1OCCF [Example 91, 7-bromo-N-[5-(2-fluoroethoxy)-4-methoxy-pyrimidin-2-yl]imidazo[1,2-a]pyridine-3-sulfonamide] | 211 nM
COc1nc(NS(=O)(=O)c2cnc3cc(C4CC4)ccn23)c(F)cc1CC#N [Example 96, N-[5-(cyanomethyl)-3-fluoro-6-methoxy-2-pyridyl]-7-cyclopropyl-imidazo[1,2-a]pyridine-3-sulfonamide] | 38 nM
COc1nc(C2CC2)c(F)cc1NS(=O)(=O)c1cnc2cc(Cl)ccn12 [Example 25, 7-chloro-N-(6-cyclopropyl-5-fluoro-2-methoxy-3-pyridyl)imidazo[1,2-a]pyridine-3-sulfonamide] | 23 nM
COc1cc(CC#N)c(F)cc1NS(=O)(=O)c1cnc2cc(C3CC3)ccn12 [Example 93, N-[4-(cyanomethyl)-5-fluoro-2-methoxy-phenyl]-7-cyclopropyl-imidazo[1,2-a]pyridine-3-sulfonamide] | 4 nM
COc1nc(OC(F)F)c(F)cc1NS(=O)(=O)c1cnc2nc(C3CC3)ccn12 [Example 28, 7-cyclopropyl-N-[6-(difluoromethoxy)-5-fluoro-2-methoxy-3-pyridyl]imidazo[1,2-a]pyrimidine-3-sulfonamide] | 31 nM
COc1cc(CC#N)c(F)cc1NS(=O)(=O)c1cnc2cc(C3COC3)ccn12 [Example 101, N-[4-(cyanomethyl)-5-fluoro-2-methoxy-phenyl]-7-(oxetan-3-yl)imidazo[1,2-a]pyridine-3-sulfonamide] | 179 nM
COc1cc(CC#N)c(F)cc1NS(=O)(=O)c1cnc2cc(Br)ccn12 [Example 3, 7-bromo-N-[4-(cyanomethyl)-5-fluoro-2-methoxy-phenyl]imidazo[1,2-a]pyridine-3-sulfonamide] | 7 nM
N#CCc1cc(F)c(NS(=O)(=O)c2cnn3cc(Br)ccc23)cc1F [Example 92, 6-bromo-N-[4-(cyanomethyl)-2,5-difluoro-phenyl]pyrazolo[1,5-a]pyridine-3-sulfonamide] | 115 nM
COc1nc(NS(=O)(=O)c2cnc3cc(Cl)ccn23)nc(OC)c1OCCF [Example 89, 7-chloro-N-[5-(2-fluoroethoxy)-4,6-dimethoxy-pyrimidin-2-yl]imidazo[1,2-a]pyridine-3-sulfonamide] | 139 nM
COc1nc(NS(=O)(=O)c2cnc3cc(C4COC4)ccn23)c(F)cc1CC(F)F [Example 102, N-[5-(2,2-difluoroethyl)-3-fluoro-6-methoxy-2-pyridyl]-7-(oxetan-3-yl)imidazo[1,2-a]pyridine-3-sulfonamide] | 201 nM
COc1nc(NS(=O)(=O)c2cnc3nc(C4CC4)ccn23)c(F)cc1OCC(F)F [Example 49, 7-cyclopropyl-N-[5-(2,2-difluoroethoxy)-3-fluoro-6-methoxy-2-pyridyl]imidazo[1,2-a]pyrimidine-3-sulfonamide] | 89 nM
COc1nc(NS(=O)(=O)c2cnc3nc(C4CC4)ccn23)c(F)cc1OC(F)F [Example 97, 7-cyclopropyl-N-[5-(difluoromethoxy)-3-fluoro-6-methoxy-2-pyridyl]imidazo[1,2-a]pyrimidine-3-sulfonamide] | 23 nM
COc1c(C)ccn2c(S(=O)(=O)Nc3cc(F)c(CC#N)cc3F)cnc12 [Example 32, N-[4-(cyanomethyl)-2,5-difluoro-phenyl]-8-methoxy-7-methyl-imidazo[1,2-a]pyridine-3-sulfonamide] | 40 nM
COc1nc(NS(=O)(=O)c2cnn3cc(Br)ccc23)c(F)cc1CC#N [Example 79, 6-bromo-N-[5-(cyanomethyl)-3-fluoro-6-methoxy-2-pyridyl]pyrazolo[1,5-a]pyridine-3-sulfonamide] | 20 nM

Continued, values first:

IC50 | Compound
101 nM | COc1nc(OCC(F)F)c(F)cc1NS(=O)(=O)c1cnc2n1CCC(C)O2 (stereo not shown) [Example 53, N-[6-(2,2-difluoroethoxy)-5-fluoro-2-methoxy-3-pyridyl]-7-methyl-6,7-dihydro-5H-imidazo[2,1-b][1,3]oxazine-3-sulfonamide]
99 nM | COc1nc(NS(=O)(=O)c2cnc3cc(Cl)ccn23)c(F)cc1OCC(F)F [Example 51, 7-chloro-N-[5-(2,2-difluoroethoxy)-3-fluoro-6-methoxy-2-pyridyl]imidazo[1,2-a]pyridine-3-sulfonamide]
18 nM | COc1nc(OC(F)F)c(F)cc1NS(=O)(=O)c1cnc2cc(C)ccn12 [Example 13, N-[6-(difluoromethoxy)-5-fluoro-2-methoxy-3-pyridyl]-7-methyl-imidazo[1,2-a]pyridine-3-sulfonamide]
35 nM | COc1nc(OCC(F)F)c(F)cc1NS(=O)(=O)c1cnc2n1CCC(C)C2C (stereo not shown) [Example 30, N-[6-(2,2-difluoroethoxy)-5-fluoro-2-methoxy-3-pyridyl]-7,8-dimethyl-5,6,7,8-tetrahydroimidazo[1,2-a]pyridine-3-sulfonamide]
7 nM | COc1nc(OCC(F)F)c(F)cc1NS(=O)(=O)c1cnc2cc(C)ccn12 [Example 2, N-[6-(2,2-difluoroethoxy)-5-fluoro-2-methoxy-3-pyridyl]-7-methyl-imidazo[1,2-a]pyridine-3-sulfonamide]
75 nM | COc1nc(OC(F)F)c(F)cc1NS(=O)(=O)c1cnc2c(C#N)c(C)ccn12 [Example 43, 8-cyano-N-[6-(difluoromethoxy)-5-fluoro-2-methoxy-3-pyridyl]-7-methyl-imidazo[1,2-a]pyridine-3-sulfonamide]
8 nM | COc1nc(OCC(F)F)c(F)cc1NS(=O)(=O)c1cnc2c(OC)c(C)ccn12 [Example 4, N-[6-(2,2-difluoroethoxy)-5-fluoro-2-methoxy-3-pyridyl]-8-methoxy-7-methyl-imidazo[1,2-a]pyridine-3-sulfonamide]
23 nM | COc1nc(CC#N)c(F)cc1NS(=O)(=O)c1cnc2cc(Cl)ccn12 [Example 22, 7-chloro-N-[6-(cyanomethyl)-5-fluoro-2-methoxy-3-pyridyl]imidazo[1,2-a]pyridine-3-sulfonamide]
38 nM | COc1nc(OCC(F)F)c(F)cc1NS(=O)(=O)c1cnc2cc(C(C)(C)O)ccn12 [Example 106, N-[6-(2,2-difluoroethoxy)-5-fluoro-2-methoxy-3-pyridyl]-7-(1-hydroxy-1-methyl-ethyl)imidazo[1,2-a]pyridine-3-sulfonamide]
85 nM | COc1nc(OCC(F)F)c(F)cc1NS(=O)(=O)c1cnc2nc(C)ccn12 [Example 48, N-[6-(2,2-difluoroethoxy)-5-fluoro-2-methoxy-3-pyridyl]-7-methyl-imidazo[1,2-a]pyrimidine-3-sulfonamide]
9 nM | COc1nc(OC(F)F)c(F)cc1NS(=O)(=O)c1cnc2cc(Br)ccn12 [Example 8, 7-bromo-N-[6-(difluoromethoxy)-5-fluoro-2-methoxy-3-pyridyl]imidazo[1,2-a]pyridine-3-sulfonamide]
176 nM | COc1nc(OCC(F)F)c(F)cc1NS(=O)(=O)c1cnc2cc(C#N)ccn12 [Example 59, 7-cyano-N-[6-(2,2-difluoroethoxy)-5-fluoro-2-methoxy-3-pyridyl]imidazo[1,2-a]pyridine-3-sulfonamide]
31 nM | COc1nc(OCC(F)F)c(F)cc1NS(=O)(=O)c1cnc2c(C#N)c(C)ccn12 [Example 27, 8-cyano-N-[6-(2,2-difluoroethoxy)-5-fluoro-2-methoxy-3-pyridyl]-7-methyl-imidazo[1,2-a]pyridine-3-sulfonamide]
18 nM | COc1nc(OCC(F)F)c(F)cc1NS(=O)(=O)c1cnc2cc(C(F)F)ccn12 [Example 14, N-[6-(2,2-difluoroethoxy)-5-fluoro-2-methoxy-3-pyridyl]-7-(difluoromethyl)imidazo[1,2-a]pyridine-3-sulfonamide]
974 nM | COc1nc(OCC(F)F)c(F)cc1NS(=O)(=O)c1cnc2n1CCC2C (stereo not shown) [Example 75, N-[6-(2,2-difluoroethoxy)-5-fluoro-2-methoxy-3-pyridyl]-7-methyl-6,7-dihydro-5H-pyrrol[1,2-a]imidazole-3-sulfonamide]
30 nM | COc1nc(NS(=O)(=O)c2cnc3cc(Br)ccn23)c(F)cc1OC(F)F [Example 26, 7-bromo-N-[5-(difluoromethoxy)-3-fluoro-6-methoxy-2-pyridyl]imidazo[1,2-a]pyridine-3-sulfonamide]
413 nM | COc1nc(OCC(F)F)c(F)cc1NS(=O)(=O)c1cnc2c(C)cccn12 [Example 71, N-[6-(2,2-difluoroethoxy)-5-fluoro-2-methoxy-3-pyridyl]-8-methyl-imidazo[1,2-a]pyridine-3-sulfonamide]
